Results taken from patent US12612406B2, “Cytisine salts” (Achieve Pharma UK Limited, priority 2017, dated 2026).

Tests used:
[1] = Screening of cytisine salt formation with acid salt formers; format: physicochemical; conditions: equimolar acid, 40° C. one hour, cooled to ambient
Procedure: Stock solutions of acid salt formers were prepared in the carrier solvents and having the molarities detailed in the following Table 1 below:
Stock solutions of cytisine API (non-synthetic) were also prepared in CH3CN and in Me-THF. 2.4 g of cytisine was dissolved in 60 ml of 2-Me-THF heated to a temperature of 60° C. 2.4 g of cytisine was dissolved in 24 ml of CH3CN heated to a temperature of 40° C.
200 ml capacity tubes heated to 40° C. were charged with 2 ml or 5 ml of the cytisine stock solution. The acid stock solutions were then added to the heated tubes in equimolar amounts. The solutions were held at 40° C. for one hour and then allowed to cool to ambient temperature (˜18° C.) for 18 hours.
Filtration of the obtained solids was then carried out using a PTFE fritted column and the obtained solids were dried at 50° C. for 48 hours. The properties of the obtained products were then analysed, and the outcome of this screen and the properties of the obtained products are summarised in Table 2 below: […]

[2] = Lactose compatibility: stability of cytisine and cytisine salts with lactose on storage, cytisine by HPLC; format: physicochemical; conditions: 25° C./60% RH and 40° C./75% RH, 7 and 14 days
Procedure: The stability of formulations of cytisine and the present cytisine salts with lactose was investigated. Samples were stored at 25° C. and 60% relative humidity (RH) and at 40° C. and 75% RH and evaluated after 7 and 14 days. […] Thus, these salts effectively improve the stability of cytisine and facilitates its formulation with compositions comprising lactose.

CC(=O)O [Acetate]
Assessment (salt preparation) ([1]; API stock solution in 2-MeTHF): Secondary precipitations, unstable salt | Assessment (salt preparation) ([1]; API stock solution in CH3CN): Secondary precipitations, unstable salt

O=C(O)c1cc(O)ccc1O.O=c1cccc2n1C[C@@H]1CNC[C@H]2C1 [Gentisate, Cytisine Gentisate]
Assessment (salt preparation) ([1]; API stock solution in 2-MeTHF): Excellent salt profile | Assessment (salt preparation) ([1]; API stock solution in CH3CN): Excellent salt profile | Degradation rate of cytisine compared with free base form [2]: degraded at a substantially lower rate

O=C(O)C=CC(=O)O.O=c1cccc2n1CC1CNCC2C1 (stereo not shown) [Maleate, Cytisine Maleate]
Assessment (salt preparation) ([1]; API stock solution in 2-MeTHF): Excellent salt profile | Assessment (salt preparation) ([1]; API stock solution in CH3CN): Excellent salt profile

CS(=O)(=O)O.O=c1cccc2n1C[C@@H]1CNC[C@H]2C1 [Mesylate, Cytisine Mesylate]
Assessment (salt preparation) ([1]; API stock solution in 2-MeTHF): Excellent salt profile | Assessment (salt preparation) ([1]; API stock solution in CH3CN): Excellent salt profile | Degradation rate of cytisine compared with free base form [2]: degraded at a substantially lower rate

Ascorbate
Assessment (salt preparation) ([1]; API stock solution in 2-MeTHF): Secondary precipitations, unstable salt | Assessment (salt preparation) ([1]; API stock solution in CH3CN): Secondary precipitations, unstable salt

Benzoate
Assessment (salt preparation) ([1]; API stock solution in 2-MeTHF): Failed to yield solid | Assessment (salt preparation) ([1]; API stock solution in CH3CN): Failed to yield solid

Glucuronate
Assessment (salt preparation) ([1]; API stock solution in 2-MeTHF): Failed to yield solid | Assessment (salt preparation) ([1]; API stock solution in CH3CN): Failed to yield solid
